PubChem BioAssay (NCI)
Where “and” joins values, the source holds several entries; their conditions need not be identical. Equal values may be shown once.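 1) Cells in 96-well plates. 2) Compound, 48 h, 5 concentrations. 3) Linear interpolation between surrounding doses. 4) Unreached endpoint = highest concentration. At the GI50, growth is halved. TGI marks complete inhibition of growth.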

Legend:
Test in all cases: NCI-60 cell line screen, 48 h
CAKI-1 renal = tested on: CAKI-1 renal
SK-MEL-28 melanoma = tested on: SK-MEL-28 melanoma
CCRF-CEM leukemia = tested on: CCRF-CEM leukemia
HCT-116 colon = tested on: HCT-116 colon
MALME-3M melanoma = tested on: MALME-3M melanoma
MOLT-4 leukemia = tested on: MOLT-4 leukemia
NCI-H23 lung = tested on: NCI-H23 lung
SNB-19 CNS = tested on: SNB-19 CNS
T-47D breast = tested on: T-47D breast
A498 renal = tested on: A498 renal

| SMILES | GI50 (CAKI-1 renal) | TGI (CAKI-1 renal) | GI50 (SK-MEL-28 melanoma) | TGI (SK-MEL-28 melanoma) | GI50 (CCRF-CEM leukemia) | TGI (CCRF-CEM leukemia) | GI50 (HCT-116 colon) | TGI (HCT-116 colon) | GI50 (MALME-3M melanoma) | TGI (MALME-3M melanoma) | GI50 (MOLT-4 leukemia) | TGI (MOLT-4 leukemia) | GI50 (NCI-H23 lung) | TGI (NCI-H23 lung) | GI50 (SNB-19 CNS) | TGI (SNB-19 CNS) [µM] | GI50 (T-47D breast) | TGI (T-47D breast) | GI50 (A498 renal) | TGI (A498 renal) |
| --- | --- | --- | --- | --- | --- | --- | --- | --- | --- | --- | --- | --- | --- | --- | --- | --- | --- | --- | --- | --- |
| c1ccc2nc(OCCN3CC3)ccc2c1 | 9.2 µM | 28.8 µM | 14.5 µM | 29.2 µM | 4.4 µM | 60.5 µM | 2.39 µM | 15.5 µM | 16.6 µM | 43.6 µM | 4.04 µM | 59 µM | 12.9 µM | 35.8 µM | 15.7 µM | 43.6 | 12.4 µM | 30.6 µM | 14.2 µM | 30 µM |
| CCOC(=O)c1ccccc1-c1c2ccc(=[N+](C)C)cc-2oc2cc(N(C)C)ccc12 | 0.691 µM | 4.64 µM | 0.687 µM | 13 µM | 0.42 µM | > 45.9 µM | 0.257 µM | 13.1 µM | 0.333 µM | 7.62 µM | 0.488 µM | 35.7 µM | 0.231 µM | 11.9 µM | 0.103 µM | 16.7 | 0.104 µM | 19.8 µM | 0.013 µM | 1.11 µM |
| O=c1c2c3c(sc2n2c(-c4ccc(Br)cc4)nnc2n1Cc1ccccc1)CCCC3 | 6.02 µM | 22.4 µM | 6.19 µM | 19.9 µM | 2.98 µM | 29.2 µM | 9.56 µM | 22.7 µM | 3.19 µM | 19.5 µM | 3.84 µM | 91.6 µM | 12.4 µM | 31.3 µM | 8.12 µM | 20.7 | 4.42 µM | 16.8 µM | 10.9 µM | 22.9 µM |
| Oc1ccc(Cl)cc1-c1cc(-c2ccc(F)cc2)n[nH]1 | 1.77 µM | 9.14 µM | 8.35 µM | > 100 µM | 0.452 µM | 4.12 µM | 2 µM | 5.64 µM | 3.26 µM | 9.66 µM | 2.8 µM | 41.4 µM | 1.61 µM | 4.09 µM | 2.27 µM | 8.27 | 1.6 µM | 38.8 µM | 2.21 µM | 6.85 µM |
| O=[N+]([O-])c1cc(F)c2cccnc2c1O | 3.82 µM | 25.8 µM | 21.2 µM | > 100 µM | 3.46 µM | 26.7 µM | 6.93 µM | > 100 µM | 3.89 µM | 28.8 µM | 2.43 µM | 11 µM | 7.73 µM | > 100 µM | 9.24 µM | > 100 | 21.2 µM | > 100 µM | 6.84 µM | 42.4 µM |
| ClCC#CCSc1ncnc2c1ncn2CC#CCCl | 1.15 µM | 3.74 µM | 1.61 µM | 3.14 µM | 1.8 µM | 15.2 µM | 1.42 µM | 2.93 µM | 1.88 µM | 6.42 µM | 2.68 µM | 14.1 µM | 1.49 µM | 3.46 µM | 1.64 µM | 3.61 | 1.33 µM | 2.68 µM | 1.75 µM | 4.75 µM |
| O=C1c2ccccc2-c2c1c1ccccc1c(=O)n2-c1ccccc1 |  | 34.7 µM |  | > 100 µM |  | > 100 µM |  | 26.8 µM |  | > 100 µM |  | > 100 µM |  | 24 µM |  | 20.4 |  | 46.7 µM |  | 60.7 µM |
| CCOC(=O)Cc1csc(NC(=O)COC(=O)c2ccc(OC)cc2)n1 | > 100 µM | > 100 µM | > 100 µM | > 100 µM | 11.1 µM | 31.5 µM | > 91.9 µM | > 100 µM | 64.9 µM | > 100 µM |  | > 35.6 µM | 29.8 µM | > 100 µM | > 100 µM | > 100 | > 100 µM | > 100 µM | > 100 µM | > 100 µM |
| C#Cc1cc2c(N)c(C(=O)c3cc(OC)c(OC)c(OC)c3)[nH]c2cc1OC | 0.573 µM | > 100 µM | 19.3 µM | > 100 µM | 0.63 µM | > 100 µM | 0.431 µM | > 100 µM | 0.434 µM | > 100 µM | 0.903 µM | 95.2 µM | 1.94 µM | > 100 µM | 0.73 µM | > 100 | 0.449 µM | 54.7 µM | 0.487 µM | 16.9 µM |
| CO[C@H](C(=O)O)[C@@H]1Cc2cc3cc(OC4CC(OC5CC(O)C(O)C(C)O5)C(O)C(C)O4)c(C)c(O)c3c(O)c2C(=O)[C@H]1OC1CC(OC2CC(OC3CC(C)(O)C(O)C(C)O3)C(O)C(C)O2)C(O)C(C)O1 (some centres not stated) | 0.598 µM | > 32.5 µM | 0.191 µM | 1.99 µM | 0.33 µM | > 32.5 µM | 0.132 µM | > 32.5 µM | 0.205 µM | 1.4 µM | 0.272 µM | 6.41 µM | 0.211 µM | 2.67 µM | 0.201 µM | > 32.5 | 0.302 µM | > 32.5 µM | 0.135 µM | 0.773 µM |
| CCCCOc1ccc(/C=N/Nc2cc(C)nc3ccc(Cl)cc23)cc1 | 1.68 µM | 3.07 µM | 1.66 µM | 3.08 µM | 1.86 µM | 4.48 µM | 2.13 µM | 4.85 µM | 1.85 µM | 3.38 µM | 1.7 µM | 3.61 µM | 1.77 µM | 3.42 µM | 1.81 µM | 3.3 | 1.73 µM | 3.77 µM | 1.52 µM | 2.93 µM |
| CCCCCc1c(C)[nH]c(/C=C2\N=C(c3ccc[nH]3)C=C2OCc2ccccc2)c1C | 0.0498 µM and 0.0269 µM |  | 0.105 µM and 0.0459 µM | 1.05 µM and 0.267 µM | 0.0261 µM and 0.0162 µM |  | 0.0343 µM and 0.0186 µM | 0.189 µM and 0.133 µM | 0.116 µM and 0.0585 µM | 0.494 µM and 0.209 µM | 0.0365 µM and 0.0402 µM | 1.33 µM and 7.14 µM | 0.116 µM and 0.0563 µM | 2.23 µM and 0.627 µM | 0.21 µM and 0.112 µM | 1.96 | 0.0445 µM and 0.0311 µM | 0.741 µM and 1.01 µM | 0.0411 µM and 0.0298 µM | 0.74 µM and 0.219 µM |
| COc1ccc(-c2c(N)n[nH]c2-c2cc(OC)c(OC)c(OC)c2)cc1 | 0.381 µM | > 100 µM | 5.57 µM | > 100 µM | 0.238 µM | > 100 µM | 0.173 µM | > 38.8 µM | 22.5 µM | > 100 µM | 0.275 µM | > 100 µM | 0.25 µM | 43.7 µM | 0.403 µM | > 100 | 25.3 µM | > 100 µM | 0.0549 µM | 0.615 µM |
| O=C(O)C(=O)CBr | > 32.5 µM and 14.7 µM | > 47.3 µM and 28 µM | > 42.4 µM and 16.6 µM | > 62.8 µM and 32.2 µM | 14.4 µM and 7.12 µM | > 52.2 µM and 38.6 µM | > 38.9 µM and 18.5 µM | > 54.2 µM and 33.3 µM | > 41.7 µM and 16.9 µM | > 59.1 µM and 32.5 µM | > 40.6 µM and 21.9 µM | > 72.9 µM and 51.9 µM | > 48.4 µM and 19.9 µM | > 74 µM and 39.5 µM | > 100 µM | > 100 | > 100 µM and 25.5 µM | > 100 µM and 64.7 µM | > 100 µM | > 100 µM |
